# Measured values taken from publication PMC9490316, “Covalent fragment inhibits intramembrane proteolysis” (Frontiers in Molecular Biosciences, 2022).
# Biological target: T1, transmembrane domain of amyloid precursor protein (APPTM) (Homo sapiens, UniProt P05067)
# T1 construct: gene APP; APPTM, transmembrane domain of amyloid precursor protein (5,590 Da, 15N labeled, in DPC micelles)
# Assay: 2D 1H-15N TROSY NMR and MALDI-TOF-MS (covalent adducts, up to six additions); the IC50 is from a gel-based assay of APPTM cleavage by PSH
# Type: biochemical
# T1 sequence (P05067 686-726 limits assumed): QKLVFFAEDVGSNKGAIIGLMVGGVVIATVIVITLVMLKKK
smiles,measurement,value
Oc1ccc(O)c2c1C1CCC2C1 [6H8],IC50,2 to 4 µM
